According to patent publication US20210161937A1, “ACTIVATION OF MITOCHONDRIAL UNCOUPLING AS A THERAPEUTIC INTERVENTION” (The Trustees of Columbia University in the City of New York, priority 2018, published 2021):
“Also recorded” adds a separate entry of the source.

Columns and labels:
Drosophila [1] = test: CO2 respiration assay after mitochondrial drug feeding; type: in vivo; conditions: 24 hr feeding; 500 μM Oligomycin, 1 mM rotenone, 5 mM 2,4 DNP, 0.5% stearate
Protocol: Measurement of CO2 production was performed similarly to Yatsenko et al. 2014. Briefly, 10 flies were placed in a sealed pipette tip-capillary respirometer (without anesthesia) containing a small amount of soda-lime. Respirometers were placed capillary side down in dH20 containing 0.1% blue food dye in a sealed TLC chamber placed in a 25° C. incubator. Empty sealed respirometers (containing no flies) were used to subtract blue dye background migration from experimental (fly-containing) samples. Flies were tested for 2 hr between at circadian timepoints, and CO2 production rate was indirectly determined by the amount of liquid movement up the capillary per hour after background subtraction. At least 6 groups of 10 flies were used per genotype for quantification for each condition. For mitochondrial drug feeding experiments, flies were placed on food containing the following compounds for 24 hr: 500 μM Oligomycin, 1 mM rotenone, 5 mM 2,4 DNP, 0.5% stearate, or ethanol vehicle controls.

Drosophila [2] = test: Lifespan analysis of flies fed drug-supplemented adult medium; type: in vivo; conditions: for median lifespan of control flies versus dose / median lifespan of per^01 null mutants versus dose: varying concentrations fed during adulthood; for lifespan of per^01 mutants / median lifespan of per^01 null mutants versus dose: per^01 null mutants; for lifespan of per^01 mutants: dietary DNP or BHT; for lifespan: wild-type (control) male flies, dietary 2,4 DNP 0.01-0.1 mM or BHT 0.1-1 mM vs ethanol vehicle
Protocol: Drosophila were reared from embryos in low-density bottles with standard medium containing 3.8% glucose, 1.9% sucrose, 3% yeast nutritional flake (Lab Scientific), 6.5% cornmeal, 0.8% agar, supplemented with 1.5% methylparaben mix (10% methylparaben in ethanol) and 1% propionic acid. Adult flies that eclosed within a 24 hour period were collected and transferred to “adult medium” containing 3.8% glucose, 1.9% sucrose, 8% cornmeal, 1% agar, and either 0.01%, 0.5%, 3%, 5%, or 10% yeast extract (Difco) supplemented with 1.5% methylparaben mix and 1% propionic acid for lifespan and biochemical analysis. All percentages given in wt/v except methylparaben mix, propionic acid given in v/v.
All drugs were supplemented into cooled (65° C.) liquid adult medium (containing 3% yeast extract) following preparation to the following final concentration(s): RU486 100μg/mL. RU486 (Cayman Chemical) dissolved in ethanol was supplemented into medium after eclosion at a final concentration of 100 μg/mL (with the exception of DaGS>UAS-Ucp4c and controls, 5 μg/mL) vehicle controls were supplemented with same volume of ethanol alone. Developmental induction was achieved by adding RU486 at concentration of 5 μg/mL, or ethanol vehicle, followed by adults being aged on standard food containing no RU486. For uncoupler feeding 2,4 DNP or BHT purchased from Sigma was dissolved in ethanol fresh at the time of making food and added in to the media, at the indicated concentrations. 2,4 DNP (0.01-0.1 mM) and BHT (0.1-1 mM).
(§1) Newly eclosed flies (˜24 hr) were collected and allowed to mate for 48 hr. Female and male flies were separated and maintained at a density of 30-35 flies per vial in a humidified, temperature-controlled (25° C.) incubator with a 12-hour light-dark cycle. For starvation analysis, flies were aged for 7 days in vials containing indicated diets and then transferred to 1% agar in a humidified, temperature-controlled incubator with 12-hour light-dark cycle at 25° C. Death was scored every 1-2 days, with live flies transferred to fresh vials every 2-3 days. Statistical significance was determined by log-rank analysis.

[3] = system: posterior midgut, ISCs/EBs; test: MitoSOX intestinal staining and esg+ cell quantification in posterior midguts of Esg-GAL4>GFP flies; type: in vivo, Drosophila; conditions: Esg-GAL4>GFP flies fed DNP vs vehicle
Protocol: Flies were anesthetized on ice and intestines were dissected in cold Schneider's Medium (Thermo Fisher Scientific). Intestines were then incubated in 75 nM of TMRE (Thermo Fisher Scientific) in Schneider's Medium, for 10 min at room temperature. Samples were rinsed three times for 30 sec with a solution consisting of 20 nM of TMRE Schneider's Medium. For MitoSOX staining dissected intestines were immersed in 50 μM MitoSOX Red (Invitrogen) in Schneider's Medium for 5 min at room temp, then washed three times for 30 sec in Schneider's Medium. MitoSOX or TMRE samples were quickly mounted in Schneider's Medium containing 1.5 μg/mL Hoechst stain. Intestines were imaged within 20 min on a Ziess LSM800 confocal microscope. Z-stacks spanning the entire posterior midgut were taken. Quantification of TMRE or MitoSOX was performed using ImageJ in which mean fluorescent intensity values were quantified. TMRE foci were quantified using the ImageJ (Schneider et al. 2012) local maxima tool, using identical thresholding for all images. Foci number were normalized to the number of nuclei in the measured field of view. Quantification of MitoSOX output of ISCs/EBs was determined by mean intensity from individual Z-planes with regions of interest defined by esgGFP expression, cell size, and basal location within the intestinal epithelium. Mean intensity of MitoSOX fluorescence levels in all ISCs/EBs were averaged for each individual intestine. A minimum of 9 midguts were used for each genotype or drug treatment.

ISC tumors = test: Notch-RNAi induced ISC tumor formation (Esg^ts>UAS-Notch-RNAi flies); type: in vivo, Drosophila
Protocol: as §1
Ese^ts>UAS-Notch-RNAi flies were reared at 18° C. Upon eclosion flies were collected, sexed and placed on media containing 0.05 mM 2,4 DNP, or ethanol vehicle food at 30° C. Time-points of day 0, 8, and 16 days were taken. Intestines were dissected, fixed, and stained as above pHH3 protocol, with anti-GFP (cell signaling) and 1.5 μg/mL Hoechst stain. Quantification of GFP area was performed by using the ImageJ count particle tool in the GFP channel normalized to total area of the posterior midgut that was imaged. 7-13 guts were used for each condition and timepoint.

CCCCCCCCCCCCCCCCCC(=O)O [stearic acid]
respiration (relative CO2 production) of control flies (Drosophila [1]): increased the respiration of control flies to levels similar to those of per^01 mutants | respiration (relative CO2 production) of per^01 mutants (Drosophila [1]): did not increase the respiration of per^01 mutants

Cc1cc(C(C)(C)C)c(O)c(C(C)(C)C)c1 [BHT, butylated hydroxytoluene]
median lifespan of control flies versus dose (Drosophila [2]): increased their median lifespan in a dose-dependent manner | lifespan of per^01 mutants (Drosophila [2]): did not extend the lifespan of per^01 mutants | median lifespan of per^01 null mutants versus dose (Drosophila [2]): no median lifespan increase was observed | lifespan (Drosophila [2]): extended the lifespan of wild-type male flies in a dose-dependent manner; also recorded: increased lifespan compared to vehicle-fed controls

C=C(C)[C@H]1Cc2c(ccc3c2O[C@@H]2COc4cc(OC)c(OC)cc4[C@@H]2C3=O)O1 [rotenone]
respiration (relative CO2 production) of control flies (Drosophila [1]): inhibited the CO2 output of both control and per^01 animals to a similar degree | respiration (relative CO2 production) of per^01 mutants (Drosophila [1]): inhibited the CO2 output of both control and per^01 animals to a similar degree

CC#C[C@]1(O)CC[C@H]2[C@@H]3CCC4=CC(=O)CCC4=C3[C@@H](c3ccc(N(C)C)cc3)C[C@@]21C [RU486, mifepristone]
lifespan on RU486 administration (induces constitutive overexpression of UCPs) (Drosophila [2]; RU486-inducible UCP overexpression (DaGS>UAS-Ucp4C flies)): increased lifespan

CC[C@H]1/C=C/C=C/C[C@@H](C)[C@H](O)[C@@](C)(O)C(=O)[C@@H](C)[C@H](O)[C@@H](C)C(=O)[C@@H](C)[C@H](O)[C@@H](C)/C=C/C(=O)O[C@@H]2[C@H](C)[C@H](CC1)O[C@]1(CC[C@H](C)[C@H](C[C@@H](C)O)O1)[C@H]2C [oligomycin]
respiration (relative CO2 production) of control flies (Drosophila [1]): inhibited the CO2 output of both control and per^01 animals to a similar degree | respiration (relative CO2 production) of per^01 mutants (Drosophila [1]): inhibited the CO2 output of both control and per^01 animals to a similar degree

O=[N+]([O-])c1ccc(O)c([N+](=O)[O-])c1 [DNP, 2,4-dinitrophenol]
median lifespan of control flies versus dose (Drosophila [2]; listed as 2,4 DNP): increased their median lifespan in a dose-dependent manner | lifespan of per^01 mutants (Drosophila [2]): did not extend the lifespan of per^01 mutants | median lifespan of per^01 null mutants versus dose (Drosophila [2]): no median lifespan increase was observed | lifespan (Drosophila [2]): extended the lifespan of wild-type male flies in a dose-dependent manner | respiration (relative CO2 production) of control flies (Drosophila [1]): increased the respiration of control flies to levels similar to those of per^01 mutants | respiration (relative CO2 production) of per^01 mutants (Drosophila [1]): did not increase the respiration of per^01 mutants | age-related esg+ cell overproliferation (esg+ cell count) [3]: reduced | mitochondrial ROS output of ISC/EB populations (MitoSOX staining in GFP-marked ISCs/EBs) [3]: reduced | mitochondrial ROS output of the entire posterior midgut (MitoSOX staining) [3]: reduced | age-related esg+ cell overproliferation (esg+ cell count) ([3]; listed as 2,4 DNP): fewer esg+cells | mitochondrial ROS output of ISC/EB populations (MitoSOX staining in GFP-marked ISCs/EBs) ([3]; listed as 2,4 DNP): decreased MitoSOX staining specifically in ISCs/EBs | mitochondrial ROS output of the entire posterior midgut (MitoSOX staining) ([3]; listed as 2,4 DNP): decreased Mitosox staining of the entire posterior midgut | progression of ISC tumors (GFP+ area in the midgut) (ISC tumors; 0.05 mM 2,4 DNP in media vs ethanol vehicle, 30° C., day 0, 8, 16): slowed the progression of ISC tumors; also recorded: delayed tumor formation | lifespan of flies with Notch-induced tumor formation (ISC tumors; dietary 2,4 DNP vs vehicle): extended the shortened lifespan of these animals; also recorded: extended lifespans
